# Data published in PMC5239439, “Virtual screening, optimization, and identification of a novel specific PTP-MEG2 Inhibitor with potential therapy for T2DM” (Oncotarget, 2016).
# Where two headings read alike, the source gives them in different places.
# Columns and labels:
# Assay type in all cases: biochemical
# PTP-MEG2 = molecular target: T1, PTP-MEG2 (Homo sapiens, UniProt P43378); assay: Enzymatic assay with pNPP as substrate, PTP-MEG2; conditions: pH 6.0, 37°C 30 min
# T1 construct: host or cells: E. coli
# T1 sequence (P43378 1-593): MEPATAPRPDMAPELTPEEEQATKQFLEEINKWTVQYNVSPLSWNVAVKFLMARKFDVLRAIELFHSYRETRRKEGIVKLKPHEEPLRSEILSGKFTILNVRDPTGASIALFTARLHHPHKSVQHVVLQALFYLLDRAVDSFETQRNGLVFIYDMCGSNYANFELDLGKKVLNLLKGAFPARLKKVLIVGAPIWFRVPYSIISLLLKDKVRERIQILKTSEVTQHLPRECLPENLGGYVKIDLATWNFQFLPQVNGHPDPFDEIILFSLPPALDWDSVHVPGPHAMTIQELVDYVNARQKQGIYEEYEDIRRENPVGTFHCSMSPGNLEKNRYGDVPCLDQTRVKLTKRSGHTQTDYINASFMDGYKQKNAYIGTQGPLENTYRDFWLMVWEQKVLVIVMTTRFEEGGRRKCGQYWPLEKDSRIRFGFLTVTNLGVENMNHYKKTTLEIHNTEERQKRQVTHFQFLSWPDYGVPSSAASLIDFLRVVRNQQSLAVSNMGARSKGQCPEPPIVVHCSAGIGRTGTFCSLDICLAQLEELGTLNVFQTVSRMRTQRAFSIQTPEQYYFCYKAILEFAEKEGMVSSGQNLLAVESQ
# Description: (§1) Briefly, pNPP was hydrolyzed by PTPs to give para-nitrophenol. Para-nitrophenol converts into para-nitrophenolate (pNP), measured with a spectrophotometer after stopping solution was added. The regents and chemicals used in this assay are as follows: Ni-NTA labeled human recombinant PTPs expressed in E coli; de-phosphorylation assay buffer (50 mM citrate (pH 6.0), 0.1 M NaCl, 1 mM EDTA and 1 mM dithiothreitol (DTT)); substrate (2 mM pNPP) in assay buffer; stopping solution (0.2 M sodium hydroxide). PTPs and test-compounds with geometrically increasing concentrations were mixed in 50 μL buffer in each well of a 96-well plate. An equivalent volume of buffer without PTPs was used as blank control. After pre-incubation for 15 min at room temperature, the substrate (50 μL) was added into each well and incubated at 37°C for 30 min. Stopping buffer was poured into each well on ice and the OD value was read at 405 nm against blank.
# PTP1B = molecular target: T2, PTP1B (Homo sapiens, UniProt P18031); assay: Enzymatic assay with pNPP as substrate, PTP1B; conditions: pH 6.0, 37°C 30 min
# T2 construct: host or cells: E. coli
# T2 sequence (P18031 1-435): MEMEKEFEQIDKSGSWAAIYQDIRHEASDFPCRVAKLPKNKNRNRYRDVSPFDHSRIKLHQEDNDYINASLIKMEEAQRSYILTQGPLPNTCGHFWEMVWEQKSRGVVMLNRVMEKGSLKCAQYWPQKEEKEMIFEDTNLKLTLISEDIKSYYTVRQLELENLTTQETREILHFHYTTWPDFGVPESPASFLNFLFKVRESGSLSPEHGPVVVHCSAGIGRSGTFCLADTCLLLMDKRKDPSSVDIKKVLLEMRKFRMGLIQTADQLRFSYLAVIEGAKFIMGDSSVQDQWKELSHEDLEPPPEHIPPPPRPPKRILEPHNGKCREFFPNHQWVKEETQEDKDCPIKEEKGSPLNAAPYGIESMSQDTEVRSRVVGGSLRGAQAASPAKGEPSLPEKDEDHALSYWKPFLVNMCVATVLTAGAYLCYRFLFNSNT
# Description: as §1
# TCPTP = molecular target: T3, TCPTP (Homo sapiens, UniProt P17706); assay: Enzymatic assay with pNPP as substrate, TCPTP
# T3 construct: host or cells: E. coli
# T3 sequence (P17706 1-415): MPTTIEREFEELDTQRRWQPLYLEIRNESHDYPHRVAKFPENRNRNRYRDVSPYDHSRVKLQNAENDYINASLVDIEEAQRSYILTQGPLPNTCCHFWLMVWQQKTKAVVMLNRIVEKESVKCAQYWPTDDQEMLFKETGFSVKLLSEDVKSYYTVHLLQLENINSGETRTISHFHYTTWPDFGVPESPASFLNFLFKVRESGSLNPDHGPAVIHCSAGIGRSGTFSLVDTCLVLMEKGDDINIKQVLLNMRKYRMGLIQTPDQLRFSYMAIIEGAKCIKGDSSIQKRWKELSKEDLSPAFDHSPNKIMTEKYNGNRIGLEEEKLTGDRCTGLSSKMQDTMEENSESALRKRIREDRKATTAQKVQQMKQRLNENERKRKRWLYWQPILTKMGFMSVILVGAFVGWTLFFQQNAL
# Description: as §1
IC50 (PTP-MEG2),IC50 (PTP1B),IC50 (TCPTP),"IC50 (TCPTP; pNPP substrate, pH 6.0, 37°C 30 min, read-out: IC50 TCPTP)",SMILES
3.2 µM,> 25 µM,> 25 µM,–,"O=C(CSc1nc2ccccc2s1)Nc1cccc2ccccc12 [Compound 4a, 2-(benzo[d]thiazol-2-ylthio)-N-(naphthalen-1-yl)acetamide]"
4.3 µM,> 25 µM,–,> 25 µM,"O=C(CCCSc1nc2ccccc2s1)Nc1cccc2ccccc12 [Compound 4b, 4-(benzo[d]thiazol-2-ylthio)-N-(naphthalen-1-yl)butanamide]"
